Assay results published in US20080039422A1, “Vitamin B12-Containing Compositions and Methods of Use” (Transition Therapeutics Inc., priority 2004, published 2008).

How the values were obtained:
[1] = CN-Cbl concentration in excipient solutions after challenge, mixing and heating; assay type: physicochemical
Description: The experiments conducted in this series feature cyanocobalamin (CN-Cbl). Varying amounts of CN-Cbl were added to various excipients, including water alone, water with one other agent (e.g., ethanol) and water with two other agents (e.g., ethanol and propylene glycol). The stability was tested after varying amounts of time, and following procedures in which the vitamin B12 compound and its excipient were combined by vigorous mixing and heated.
More specifically, for each excipient condition, CN-Cbl was weighed into an Eppendorf tube, and an appropriate volume of excipient solution was added to achieve the “challenge” concentration in a total volume of ˜0.4-0.7 ml. The tube was then vortexed before being heated to 60° C. for two hours, with additional mixing by vortexing carried out for 5-10 seconds every 5-10 minutes.
Following the mixing and heating procedure described above, the tubes were cooled to room temperature (RT) and left at room temperature for 1-2 hours. Before measuring the concentration of CN-Cbl, the solutions were clarified by centrifugation for ten minutes at rcf 16,100. […] Cyanocobalamin and cyanocobalamin-containing solutions were protected from light (by being kept covered with foil) as much as practicable.
In one study, CN-Cbl was combined with excipients containing propylene glycol, ethanol, PEG 300, or glycerol so that the final maximum concentration of CN-Cbl could be as high as 100 mg/ml. The amount of each excipient was also varied from 5-80% (however, not all possible variants were tested). […] The concentration of CN-Cbl to be solubilized (the “challenge”) in each case was 100 mg/ml of CN-Cbl, and the concentration of each of the excipients varied from 5% to 80% in water. […] The concentrations of CN-Cbl in other excipients were even greater. For example, the concentration of CN-Cbl in solutions containing 40 or 50% PEG 300 was about 45 mg/ml; the concentration in 15% ethanol was about 35 mg/ml; the concentration in 20% ethanol was about 52 mg/ml; and the concentrations in propylene glycol at any concentration over 30% was more than 85 mg/ml (see Table 1).
In other studies, combinations were tested of ethanol and propylene glycol or of ethanol and PEG 300. Tables 2A-2D are tables showing the concentrations of cyanocobalamin (CN-Cbl; mg/ml) in combinations of excipients. […] The concentrations of ethanol ranged from 0-20% and the concentrations of propylene glycol ranged from 0 to 60%. […] In Table 2C, the amount of propylene glycol and the amount of CN-Cbl (the “challenge”) varied. The excipient contained 20% ethanol and 0-40% propylene glycol, and the amount of CN-Cbl challenge added varied from 50-200 mg/ml. Table 2D reports final concentrations of CN-Cbl when excipients containing varying amounts of propylene glycol and ethanol were challenged with 400 mg/ml CN-Cbl.

[2] = Time course of CN-Cbl in solution (8 hours, 200 hours); assay type: physicochemical
Description: To establish more precise time courses, ten samples were prepared containing various challenge amounts of CN-Cbl in solutions containing ethanol and propylene glycol. Five of the solutions contained 15% ethanol and 20% propylene glycol and five contained 20% ethanol and 40% propylene glycol. Within each set of five, they were challenged with: (1) 50 mg/ml CN-Cbl; (2) 75 mg/ml CN-Cbl; (3) 100 mg/ml CN-Cbl; (4) 150 mg/ml CN-Cbl; and (5) 200 mg/ml CN-Cbl. To generate the solutions, the methods described above were modified by heating the solutions for 30 consecutive minutes at 60° C., after which time there was no visible precipitate. Samples were also retained within the same tubes for the duration of the study, rather than transferring supernatant fractions to fresh tubes at each time point. The concentrations were recorded eleven times; seven times within the first eight hours following the initial combination and four times over the subsequent 192 hours. The concentrations were measured at 0.5 hours, 1.0 hour, 2.0 hours, 3.0 hours, 4.0 hours, 6.0 hours, 8.0 hours, 24.0 hours, 32.0 hours, 100 hours, and 200 hours. The concentration of CN-Cbl was measured and the percentage of CN-Cbl remaining in solution was calculated.

final concentration of CN-Cbl ([1]; challenge 50 mg/ml, 20% ethanol and 0-40% propylene glycol): about 50 mg/ml
concentration of CN-Cbl ([1]; challenge 100 mg/mL, Ethanol 10.0% (v/v)): 29400 µg/mL
concentration of CN-Cbl ([1]; challenge 100 mg/mL, Glycerol 10.0% (v/v)): 18200 µg/mL
concentration of CN-Cbl ([1]; challenge 100 mg/mL, Glycerol 15.0% (v/v)): 19400 µg/mL
concentration of CN-Cbl ([1]; challenge 100 mg/mL, Glycerol 20.0% (v/v)): 21500 µg/mL
concentration of CN-Cbl ([1]; challenge 100 mg/mL, H2O): 14100 µg/mL
concentration of CN-Cbl ([1]; challenge 100 mg/mL, PEG 300 10.0% (v/v)): 24100 µg/mL
concentration of CN-Cbl ([1]; challenge 100 mg/mL, PEG 300 20.0% (v/v)): 34400 µg/mL
concentration of CN-Cbl ([1]; challenge 100 mg/mL, PEG 300 30.0% (v/v)): 40500 µg/mL
concentration of CN-Cbl ([1]; challenge 100 mg/mL, Propylene Glycol 10.0% (v/v)): 28100 µg/mL
concentration of CN-Cbl ([1]; challenge 100 mg/mL, Propylene Glycol 20.0% (v/v)): 41800 µg/mL
concentration of CN-Cbl ([1]; challenge 100 mg/mL, Propylene Glycol 30.0% (v/v)): 95300 µg/mL
concentration of CN-Cbl ([1]; challenge 100 mg/mL, Propylene Glycol 40.0% (v/v)): 95100 µg/mL
concentration of CN-Cbl ([1]; challenge 100 mg/mL, Propylene Glycol 50.0% (v/v)): 95100 µg/mL
concentration of CN-Cbl ([1]; challenge 100 mg/mL, Propylene Glycol 60.0% (v/v)): 95100 µg/mL
concentration of CN-Cbl ([1]; challenge 100 mg/mL, Propylene Glycol 70.0% (v/v)): 85300 µg/mL
concentration of CN-Cbl ([1]; challenge 100 mg/mL, Propylene Glycol 80% (v/v)): 90100 µg/mL
final concentration of CN-Cbl ([1]; challenge 100 mg/ml, 20% ethanol and 0-40% propylene glycol): about 100 mg/ml
concentration of CN-Cbl ([1]; challenge 100 mg/ml, propylene glycol at any concentration over 30%): more than 85 mg/ml
final concentration of CN-Cbl ([1]; challenge 175 mg/ml, 20% ethanol and 20% propylene glycol): about 177 mg/ml
concentration of CN-Cbl ([1]; challenge 200 mg/ml, PEG 300 40%, ethanol 5%): 77000 µg/mL
concentration of CN-Cbl ([1]; challenge 200 mg/ml, PEG 300 40%, ethanol 10%): 44400 µg/mL
concentration of CN-Cbl ([1]; challenge 200 mg/ml, PEG 300 40%, ethanol 15%): 62500 µg/mL
concentration of CN-Cbl ([1]; challenge 200 mg/ml, PG 0%, ethanol 0%): 17500 µg/mL
concentration of CN-Cbl ([1]; challenge 200 mg/ml, PG 0%, ethanol 5%): 22500 µg/mL
concentration of CN-Cbl ([1]; challenge 200 mg/ml, PG 0%, ethanol 10%): 28500 µg/mL
concentration of CN-Cbl ([1]; challenge 200 mg/ml, PG 0%, ethanol 15%): 27700 µg/mL
concentration of CN-Cbl ([1]; challenge 200 mg/ml, PG 0%, ethanol 20%): 176000 µg/mL
concentration of CN-Cbl ([1]; challenge 200 mg/ml, PG 20%, ethanol 0%): 31300 µg/mL
concentration of CN-Cbl ([1]; challenge 200 mg/ml, PG 20%, ethanol 5%): 34400 µg/mL
concentration of CN-Cbl ([1]; challenge 200 mg/ml, PG 20%, ethanol 10%): 55600 µg/mL
concentration of CN-Cbl ([1]; challenge 200 mg/ml, PG 20%, ethanol 15%): 182500 µg/mL
concentration of CN-Cbl ([1]; challenge 200 mg/ml, PG 20%, ethanol 20%): 177500 µg/mL
concentration of CN-Cbl ([1]; challenge 200 mg/ml, PG 30%, ethanol 0%): 35900 µg/mL
concentration of CN-Cbl ([1]; challenge 200 mg/ml, PG 30%, ethanol 5%): 64800 µg/mL
concentration of CN-Cbl ([1]; challenge 200 mg/ml, PG 30%, ethanol 15%): 150500 µg/mL
concentration of CN-Cbl ([1]; challenge 200 mg/ml, PG 30%, ethanol 20%): 180200 µg/mL
concentration of CN-Cbl ([1]; challenge 200 mg/ml, PG 40%, ethanol 0%): 172500 µg/mL
concentration of CN-Cbl ([1]; challenge 200 mg/ml, PG 40%, ethanol 5%): 177100 µg/mL
concentration of CN-Cbl ([1]; challenge 200 mg/ml, PG 40%, ethanol 10%): 184400 µg/mL
concentration of CN-Cbl ([1]; challenge 200 mg/ml, PG 40%, ethanol 20%): 186000 µg/mL
concentration of CN-Cbl ([1]; challenge 200 mg/ml, PG 50%, ethanol 0%): 145100 µg/mL
concentration of CN-Cbl ([1]; challenge 200 mg/ml, PG 50%, ethanol 5%): 179400 µg/mL
concentration of CN-Cbl ([1]; challenge 200 mg/ml, PG 50%, ethanol 10%): 190200 µg/mL
concentration of CN-Cbl ([1]; challenge 200 mg/ml, PG 50%, ethanol 15%): 179400 µg/mL
concentration of CN-Cbl ([1]; challenge 200 mg/ml, PG 50%, ethanol 20%): 187900 µg/mL
concentration of CN-Cbl ([1]; challenge 200 mg/ml, PG 60%, ethanol 0%): 185200 µg/mL
concentration of CN-Cbl ([1]; challenge 200 mg/ml, PG 60%, ethanol 5%): 184800 µg/mL
concentration of CN-Cbl ([1]; challenge 200 mg/ml, PG 60%, ethanol 10%): 186800 µg/mL
concentration of CN-Cbl ([1]; challenge 200 mg/ml, PG 60%, ethanol 15%): 186400 µg/mL
concentration of CN-Cbl ([1]; challenge 200 mg/ml, PG 60%, ethanol 20%): 196000 µg/mL
concentration of CN-Cbl ([1]; control experiments: water, challenged with 200 mg/ml): about 20 mg/ml
CN-Cbl solubilized ([1]; water, regardless of the amount of the challenge (50-200 mg/ml)): no more than 30 mg/ml
CN-Cbl in solution over time ([2]; challenge 150 and 200 mg/ml, greater in 15% ethanol/20% PG than in 20% ethanol/40% PG): some precipitation
CN-Cbl in solution over time ([2]; first eight hours (held true over 200 hours), challenge 50, 75 and 100 mg/ml, 15% ethanol/20% PG and 20% ethanol/40% PG): remained in solution
Substance: cyanocobalamin [CN-Cbl]
